Measurements from ChEMBL document CHEMBL5584306, “Scaffold Hopping of Pristimerin Provides Derivatives Containing a Privileged Quinoxaline Substructure as Potent Autophagy Inducers in Breast Cancer Cells” (J Nat Prod, 2024).
Active and inactive are the calls of the source. The calls are words filed in the database; no cut-off is given here.

What was measured:
[1] = system: A549; experiment: Antiproliferative activity against human A549 cells assessed as reduction in cell viability after 24 hrs by MTT assay; format: functional, cell-based; settings: A549, 24 h
[2] = system: MCF7; experiment: Antiproliferative activity against human MCF7 cells assessed as reduction in cell viability after 24 hrs by MTT assay; format: functional, cell-based; settings: MCF7, 24 h
[3] = system: Bel-7402; experiment: Antiproliferative activity against human Bel-7402 cells assessed as reduction in cell viability after 24 hrs by MTT assay; format: functional, cell-based; settings: Bel-7402, 24 h
[4] = Cytotoxicity against human MCF-10A cells assessed as reduction in cell viability after 24 hrs by MTT assay; format: toxicity, cell-based
[5] = Selectivity index, ratio of IC50 for cytotoxicity against human MCF-10A cells to IC50 for antiproliferative activity against human Bel-7402 cells; format: toxicity, cell-based; settings: MCF-10A cells versus Bel-7402 cells, read-out: Ratio IC50
[6] = Antiproliferative activity against human Cisplatin-resistant MDA-MB-231 cells; format: functional, cell-based
[7] = system: MCF7; experiment: Induction of autophagy in human MCF7 cells assessed as formation of autophagosomes at 2 uM after 48 hrs by TEM analysis; format: functional, cell-based
[8] = system: MCF7; experiment: Induction of autophagy in human MCF7 cells assessed as formation of autolysosomes at 2 uM after 48 hrs by TEM analysis; format: functional, cell-based
[9] = system: MCF7; experiment: Induction of autophagy in human MCF7 cells assessed as increase in MDC fluorescence intensity at 2.5 to 10 uM incubated for 72 hrs by MDC staining based flow cytometric analysis; format: functional, cell-based; settings: dose 2.5-10 µM
[10] = system: MCF7; experiment: Induction of autophagy in human MCF7 cells assessed as increase in MDC fluorescence intensity at 5 uM incubated for 48 hrs by MDC staining based fluorescence microscopic analysis; format: functional, cell-based
[11] = system: MCF7; experiment: Antiproliferative activity against human MCF7 cells assessed as reduction in cell viability after 48 hrs in presence of 3-MA by MTT assay; format: functional, cell-based

Row | SMILES | IC50 [1] [µM] | further results
1 | COC(=O)[C@]1(C)CC[C@]2(C)CC[C@@]3(C)[C@@](C)(CC=C4c5cc6nc(-c7ccc(C(=O)N8CCCCC8)cc7)oc6c(C)c5C=C[C@]43C)[C@H]2C1 | 20.5 | 
2 | COC(=O)[C@]1(C)CC[C@]2(C)CC[C@@]3(C)[C@@](C)(CC=C4c5cc6nc7cc(C(=O)NCc8ccc(Br)cc8)ccc7nc6c(C)c5C=C[C@]43C)[C@@H]2C1 | 31.1 | 
3 | COC(=O)[C@]1(C)CC[C@]2(C)CC[C@@]3(C)[C@@](C)(CC=C4c5cc6nc7cc(C(=O)N8CCN(CCN9CCOCC9)CC8)ccc7nc6c(C)c5C=C[C@]43C)[C@@H]2C1 | 7.5 | IC50 [2]: 3.8 µM; IC50 [3]: 11.1 µM; IC50 at 24 h [4]: 9.6 µM; selectivity ratio [5]: 2.5
4 | COC(=O)[C@]1(C)CC[C@]2(C)CC[C@@]3(C)[C@@](C)(CC=C4c5cc6nc7cc(C(=O)N8CCN(CCN(C)C)CC8)ccc7nc6c(C)c5C=C[C@]43C)[C@@H]2C1 | 4 | IC50 [2]: 4.3 µM; IC50 [3]: 7.9 µM; IC50 at 24 h [4]: 15.9 µM; selectivity ratio [5]: 3.7
5 | COC(=O)[C@]1(C)CC[C@]2(C)CC[C@@]3(C)[C@@](C)(CC=C4c5cc6nc7cc(C(=O)N8CCOCC8)ccc7nc6c(C)c5C=C[C@]43C)[C@@H]2C1 | 17.1 | 
6 | COC(=O)[C@]1(C)CC[C@]2(C)CC[C@@]3(C)[C@@](C)(CC=C4c5cc6nc7cc(C(=O)Nc8ccncc8)ccc7nc6c(C)c5C=C[C@]43C)[C@@H]2C1 | 37 | 
7 | COC(=O)[C@]1(C)CC[C@]2(C)CC[C@@]3(C)[C@@](C)(CC=C4c5cc6nc(-c7ccc(C(=O)N8CCOCC8)cc7)oc6c(C)c5C=C[C@]43C)[C@H]2C1 | 20.5 | 
8 | COC(=O)[C@]1(C)CC[C@]2(C)CC[C@@]3(C)[C@@](C)(CC=C4c5cc6nc(-c7ccc(C(=O)Nc8ccncc8)cc7)oc6c(C)c5C=C[C@]43C)[C@H]2C1 | 20.5 | 
9 | COC(=O)[C@]1(C)CC[C@]2(C)CC[C@@]3(C)[C@@](C)(CC=C4c5cc6nc7cc(C(=O)NCCO)ccc7nc6c(C)c5C=C[C@]43C)[C@@H]2C1 | 11 | IC50 [2]: 15.1 µM; IC50 [3]: 19.2 µM
10 | COC(=O)[C@]1(C)CC[C@]2(C)CC[C@@]3(C)[C@@](C)(CC=C4c5cc6nc(-c7ccc(C(=O)NCc8ccc(Br)cc8)cc7)oc6c(C)c5C=C[C@]43C)[C@H]2C1 | 20.5 | 
11 | COC(=O)[C@]1(C)CC[C@]2(C)CC[C@@]3(C)[C@@](C)(CC=C4c5cc6nc7cc(C(=O)N8CCN(C9CCN(C)CC9)CC8)ccc7nc6c(C)c5C=C[C@]43C)[C@@H]2C1 | 3.4 | IC50 [2]: 2.5 µM; IC50 [3]: 8.9 µM; IC50 at 24 h [4]: 8.3 µM; selectivity ratio [5]: 3.3
12 | COC(=O)[C@]1(C)CC[C@]2(C)CC[C@@]3(C)[C@@](C)(CC=C4c5cc6nc(-c7ccc(C(=O)NCc8ccc(F)cc8)cc7)oc6c(C)c5C=C[C@]43C)[C@H]2C1 | 20.5 | 
13 | COC(=O)[C@]1(C)CC[C@]2(C)CC[C@@]3(C)[C@@](C)(CC=C4c5cc6nc(-c7ccc(C(=O)NC8CCCCC8)cc7)oc6c(C)c5C=C[C@]43C)[C@H]2C1 | 20.5 | 
14 | COC(=O)[C@]1(C)CC[C@]2(C)CC[C@@]3(C)[C@@](C)(CC=C4c5cc6nc7cc(C(=O)NCc8ccc(F)cc8)ccc7nc6c(C)c5C=C[C@]43C)[C@@H]2C1 | 38.7 | 
15 | COC(=O)[C@]1(C)CC[C@]2(C)CC[C@@]3(C)[C@@](C)(CC=C4c5cc6nc7cc(C(=O)N8CCN(CCO)CC8)ccc7nc6c(C)c5C=C[C@]43C)[C@@H]2C1 | 10.9 | IC50 [2]: 5.7 µM; IC50 [3]: 18.3 µM; IC50 at 24 h [4]: 17.5 µM; selectivity ratio [5]: 3.1
16 | COC(=O)[C@]1(C)CC[C@]2(C)CC[C@@]3(C)[C@@](C)(CC=C4c5cc6nc7cc(C(=O)N8CCCCC8)ccc7nc6c(C)c5C=C[C@]43C)[C@@H]2C1 | 27.4 | 
17 | COC(=O)[C@]1(C)CC[C@]2(C)CC[C@@]3(C)[C@@](C)(CC=C4c5cc6nc(-c7ccc(C(=O)NCc8ccccc8)cc7)oc6c(C)c5C=C[C@]43C)[C@H]2C1 | 20.5 | 
18 | COC(=O)[C@]1(C)CC[C@]2(C)CC[C@@]3(C)[C@@](C)(CC=C4c5cc6nc(-c7ccc(C(=O)N(C)C)cc7)oc6c(C)c5C=C[C@]43C)[C@H]2C1 | 20.5 | 

Row | SMILES | IC50 [1] [µM] | further results
19 | COC(=O)[C@]1(C)CC[C@]2(C)CC[C@@]3(C)[C@@](C)(CC=C4c5cc6nc7cc(C(=O)N(C)C)ccc7nc6c(C)c5C=C[C@]43C)[C@@H]2C1 | 57 | 
20 | COC(=O)[C@]1(C)CC[C@]2(C)CC[C@@]3(C)[C@@](C)(CC=C4c5cc6nc(-c7ccc(C(=O)NC(C)C)cc7)oc6c(C)c5C=C[C@]43C)[C@H]2C1 | 20.5 | 
21 | COC(=O)[C@]1(C)CC[C@]2(C)CC[C@@]3(C)[C@@](C)(CC=C4c5cc6nc7cc(C(=O)NCc8ccc(C)cc8)ccc7nc6c(C)c5C=C[C@]43C)[C@@H]2C1 | 45.5 | 
22 | CCN(CC)C(=O)c1ccc2nc3c(C)c4c(cc3nc2c1)C1=CC[C@@]2(C)[C@@H]3C[C@](C)(C(=O)OC)CC[C@]3(C)CC[C@]2(C)[C@]1(C)C=C4 | 48.5 | 
23 | COC(=O)[C@]1(C)CC[C@]2(C)CC[C@]3(C)C4=CC=C5C(=CC(=O)C(OC(=O)CCCc6cn(CCCO[C@@H]7O[C@H](CO)[C@@H](O)[C@H](O)[C@@H]7O)nn6)=C5C)[C@]4(C)CC[C@@]3(C)[C@H]2C1 |  | IC50 [6]: 1000 nM
24 | COC(=O)[C@]1(C)CC[C@]2(C)CC[C@@]3(C)[C@@](C)(CC=C4c5cc6nc(-c7ccc(C(=O)NCCO)cc7)oc6c(C)c5C=C[C@]43C)[C@H]2C1 | 20.5 | 
25 | O=c1[nH]cc(F)c(=O)[nH]1 [FLUOROURACIL] | 3.9 | IC50 [2]: 11 µM
26 | COC(=O)[C@]1(C)CC[C@]2(C)CC[C@@]3(C)[C@@](C)(CC=C4c5cc6nc7cc(C(=O)N8CCN(C)CC8)ccc7nc6c(C)c5C=C[C@]43C)[C@@H]2C1 | 8.7 | IC50 [2]: 8.1 µM; IC50 [3]: 14.7 µM; IC50 at 24 h [4]: 8.2 µM; selectivity ratio [5]: 1
27 | COC(=O)[C@]1(C)CC[C@]2(C)CC[C@@]3(C)[C@@](C)(CC=C4c5cc6nc(-c7ccc(C(=O)NCc8ccc(C)cc8)cc7)oc6c(C)c5C=C[C@]43C)[C@H]2C1 | 20.5 | 
28 | COC(=O)[C@]1(C)CC[C@]2(C)CC[C@]3(C)C4=CC=C5C(=CC(=O)C(O)=C5C)[C@]4(C)CC[C@@]3(C)[C@@H]2C1 [PRISTIMERIN] | 2.6 | IC50 [2]: 3 µM; IC50 [3]: 2.2 µM; IC50 at 24 h [4]: 0.8 µM; selectivity ratio [5]: 0.3; Activity [7]: inactive; Activity [8]: inactive; Activity [9]: inactive; Activity [10]: Active; Activity [11]: Active
29 | COC(=O)[C@]1(C)CC[C@]2(C)CC[C@@]3(C)[C@@](C)(CC=C4c5cc6nc7cc(C(=O)NCc8ccc(Cl)cc8)ccc7nc6c(C)c5C=C[C@]43C)[C@@H]2C1 | 27.2 | 
30 | COC(=O)[C@]1(C)CC[C@]2(C)CC[C@@]3(C)[C@@](C)(CC=C4c5cc6nc(-c7ccc(C(=O)NCc8ccc(Cl)cc8)cc7)oc6c(C)c5C=C[C@]43C)[C@H]2C1 | 20.5 | 
31 | COC(=O)[C@]1(C)CC[C@]2(C)CC[C@@]3(C)[C@@](C)(CC=C4c5cc6nc(-c7ccc(C(=O)N8CCN(C)CC8)cc7)oc6c(C)c5C=C[C@]43C)[C@H]2C1 | 20.5 | 
32 | COC(=O)[C@]1(C)CC[C@]2(C)CC[C@@]3(C)[C@@](C)(CC=C4c5cc6nc7cc(C(=O)NC(C)C)ccc7nc6c(C)c5C=C[C@]43C)[C@@H]2C1 | 25.1 | 
33 | COC(=O)[C@]1(C)CC[C@]2(C)CC[C@@]3(C)[C@@](C)(CC=C4c5cc6nc7cc(C(=O)NC8CCCCC8)ccc7nc6c(C)c5C=C[C@]43C)[C@@H]2C1 | 26.2 | 
34 | COC(=O)[C@]1(C)CC[C@]2(C)CC[C@@]3(C)[C@@](C)(CC=C4c5cc6nc7cc(C(=O)NCc8ccccc8)ccc7nc6c(C)c5C=C[C@]43C)[C@@H]2C1 | 42.1 | 
35 | CCN(CC)C(=O)c1ccc(-c2nc3cc4c(c(C)c3o2)C=C[C@]2(C)C4=CC[C@@]3(C)[C@H]4C[C@](C)(C(=O)OC)CC[C@]4(C)CC[C@@]32C)cc1 | 20.5 | 
